This assay concerns the target T1, V1 receptor (Rattus norvegicus, UniProt P30560).
T1 construct: rat liver plasma membrane preparations; from tissue; host or cells: rat liver plasma membranes
The assay can be described thus: V1 receptor binding assay. The settings on record: [H]^3-Arg-vasopressin 2×10^-10 M, rat liver plasma membrane, 37° C., 10 minutes, pH 8.0.

T1 sequence (P30560 whole entry): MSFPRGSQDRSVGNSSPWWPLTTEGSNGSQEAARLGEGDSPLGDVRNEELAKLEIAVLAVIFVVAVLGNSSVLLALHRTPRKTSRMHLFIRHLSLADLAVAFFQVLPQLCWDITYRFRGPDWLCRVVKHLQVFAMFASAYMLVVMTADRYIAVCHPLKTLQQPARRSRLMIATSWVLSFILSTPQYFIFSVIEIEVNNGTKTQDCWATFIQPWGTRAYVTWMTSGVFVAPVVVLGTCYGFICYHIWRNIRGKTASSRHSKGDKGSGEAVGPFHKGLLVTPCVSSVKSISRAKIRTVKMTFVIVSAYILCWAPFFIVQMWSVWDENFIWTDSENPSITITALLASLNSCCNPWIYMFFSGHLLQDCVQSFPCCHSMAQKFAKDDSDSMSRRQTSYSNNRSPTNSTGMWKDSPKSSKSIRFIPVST

As to `CN(C)c1ccc(S(=O)(=O)CCCCCOc2ccc(C(=O)N3CCC(N4C(=O)CCc5ccccc54)CC3)cc2)cc1` [Example 290, 1-{1-(4-[5-(4-Dimethylaminophenylsulfonyl)pentyloxy]benzoyl)-4-piperidinyl}-3,4-dihydrocarbostyril], the IC50 amounted to 300 nM.
Then `C#CCc1ccc(C(=O)N2CCC(N3C(=O)CCc4ccccc43)CC2)cc1` [Example 96, 1-[1-(4-Propargylbenzoyl)-4-piperidinyl]-3,4-dihydrocarbostyril], with 600 nM.

(Values after patent US5652247A, “Carbostyril derivatives” (Otsuka Pharmaceutical Co., Ltd, priority 1989, dated 1997).)
